The subject of this assay is HEK293T cells carrying the ATF4 luciferase reporter. The assay can be described thus: ATF4-Luc assay (in vitro model of vanishing white matter disease). Conditions: Homo sapiens, HEK-293T; HEK293T cells with ATF4 luciferase reporter, 1 μg/mL tunicamycin, 7 hours, One Glo luminescence. It counts as cell-based. Put shortly: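 Stable HEK293T line with human ATF4 5′-UTR–firefly luciferase reporter treated with 1 μg/mL tunicamycin plus 200 nM compound for 7 h. Luminescence read; EC50 derived.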

Where only a bound is given, the exact number is not on record here.

As a reminder, the EC50 is the midpoint of the concentration-response curve. In the case of `COC(C)(C)CN1CC(C(=O)NC23CC(NC(=O)COc4ccc(Cl)c(F)c4)(C2)C3)Oc2ccc(Cl)cc21` (stereo not drawn) [Compound 187, 6-chloro-N-{3-[2-(4-chloro-3-fluorophenoxy)acetamido]bicyclo[1.1.1]pentan-1-yl}-4-(2-methoxy-2-methylpropyl)-3,4-dihydro-2H-1,4-benzoxazine-2-carboxamide], the EC50 lay within 10 to 50 nM.

As to `O=C(COc1ccc(Cl)c(F)c1)NC12CC(NC(=O)C3CC(NCCO)c4cc(Cl)ccc4O3)(C1)C2` (stereo not drawn) [Compound 188, 6-chloro-N-{3-[2-(4-chloro-3-fluorophenoxy)acetamido]bicyclo[1.1.1]pentan-1-yl}-4-[(2-hydroxyethyl)amino]-3,4-dihydro-2H-1-benzopyran-2-carboxamide], the EC50 is 10 to 50 nM.

As to `COC(=O)CNC1CC(C(=O)NC23CC(NC(=O)COc4ccc(Cl)c(F)c4)(C2)C3)Oc2ccc(Cl)cc21` (stereo not drawn) [Compound 189, methyl {[6-chloro-2-({3-[2-(4-chloro-3-fluorophenoxy)acetamido]bicyclo[1.1.1]pentan-1-yl}carbamoyl)-3,4-dihydro-2H-1-benzopyran-4-yl]amino}acetate], the EC50 was 10 to 50 nM.

`O=C(COc1ccc(Cl)c(F)c1)NC12CCC(NC(=O)C3CC(O)c4cc(Cl)ccc4O3)(CC1)C[C@@H]2O` (stereo partly drawn) [Compound 199, 6-chloro-N-{(3S)-4-[2-(4-chloro-3-fluorophenoxy)acetamido]-3-hydroxybicyclo[2.2.2]octan-1-yl}-4-hydroxy-3,4-dihydro-2H-1-benzopyran-2-carboxamide]: the EC50 was below 10 nM.

Regarding `O=C(COc1ccc(Cl)c(F)c1)NC12CCC(NC(=O)C3CCc4cc(F)ccc4O3)(CC1)[C@@H](O)C2` (stereo partly drawn) [Compound 200, N-{(2S)-4-[2-(4-chloro-3-fluorophenoxy)acetamido]-2-hydroxybicyclo[2.2.2]octan-1-yl}-6-fluoro-3,4-dihydro-2H-1-benzopyran-2-carboxamide], the EC50 is below 10 nM.

`O=C(COc1ccc(Cl)c(F)c1)NC12CCC(NC(=O)[C@@H]3CCc4cc(F)ccc4O3)(CC1)[C@@H](O)C2` [Compound 201, (2S)—N-{(2S)-4-[2-(4-chloro-3-fluorophenoxy)acetamido]-2-hydroxybicyclo[2.2.2]octan-1-yl}-6-fluoro-3,4-dihydro-2H-1-benzopyran-2-carboxamide]: the EC50 was below 10 nM.

`O=C(COc1ccc(Cl)c(F)c1)NC12CCC(NC(=O)[C@H]3CCc4cc(F)ccc4O3)(CC1)[C@@H](O)C2` [Compound 202, (2R)—N-{(2S)-4-[2-(4-chloro-3-fluorophenoxy)acetamido]-2-hydroxybicyclo[2.2.2]octan-1-yl}-6-fluoro-3,4-dihydro-2H-1-benzopyran-2-carboxamide]: the EC50 is below 10 nM.

Take `O=C(COc1ccc(Cl)c(F)c1)NC12CCC(NC(=O)C3CCc4cc(Cl)ccc4O3)(CC1)[C@@H](O)C2` (stereo partly drawn) [Compound 203, 6-chloro-N-{(2S)-4-[2-(4-chloro-3-fluorophenoxy)acetamido]-2-hydroxybicyclo[2.2.2]octan-1-yl}-3,4-dihydro-2H-1-benzopyran-2-carboxamide]: the EC50 is below 10 nM.

Consider `O=C(COc1ccc(Cl)c(F)c1)NC12CC(NC(=O)C3CCc4cc(Cl)ccc4O3)(C1)C2` (stereo not drawn) [Compound 204, 6-chloro-N-{3-[2-(4-chloro-3-fluorophenoxy)acetamido]bicyclo[1.1.1]pentan-1-yl}-3,4-dihydro-2H-1-benzopyran-2-carboxamide], for which the EC50 was below 10 nM.

The values are drawn from patent US20210169892A1, “MODULATORS OF THE INTEGRATED STRESS PATHWAY” (Calico Life Sciences LLC, priority 2017, published 2021).
